Tests used:
[1] = system: Sprague Dawley rats, 6-OHDA lesion; experiment: Amphetamine-induced rotations, moderate 6-OHDA hemi-parkinsonian rat model (study 2); type: in vivo; details: more severe (40%) lesion, three injections 15 mg/kg i.p., vs vehicle
Experimental: Rats were treated with 2LS98Lac or saline (vehicle) as outlined in the Schemes in Figures 9A,B via intraperitoneal (i.p.) injection (15 mg/kg). All animals were made hemi-parkinsonian with unilateral, striatal 6-hydroxydopamine (Sigma Aldrich, St. Louis, MO) injections. After surgery, behavioral assessments were done at 2- and 4-weeks post-surgery. 24 h after the last test animals were either euthanized and whole brains were harvested for future biochemical analysis or perfused and brains collected for immunohistochemistry and stereological assessment of tyrosine hydroxylase-positive (TH+) cells remaining in the SNc. In study 1: n = 16 each group were included, and all underwent the behavioral analysis: n = 16, and for the stereology in the SNc, n = 8 each group was used. […]
In order to pharmacologically assess the degree of dopaminergic (DA) depletion in the lesioned side, animals were given amphetamine, an indirectly acting DA agonist and placed into a plexiglass cylinder (38 cm tall × 38 cm across) enclosed in an open field box ([Yue et al., 2011]). Dextro-amphetamine in sterile 0.9% saline (Sigma-Aldrich) was injected i.p. at 5 mg/kg, and rotations were recorded from above using Logitech HD web cameras connected to an Acer Aspire SWS-015 computer. An observer blinded to the groups counted rotations in both the ipsilateral and contralateral rotations for the entire 70 min period. […]

[2] = system: C57BL/6 mice, diffuse TBI; experiment: Neurological severity score after TBI; type: in vivo, mouse; details: 10 mg/kg i.p. 30 min prior to TBI, 2, 5 and 7 DPI
Experimental: 30 min prior to TBI or sham injury, mice were randomly assigned to a therapeutic group and received an intraperitoneal injection of 2LS80Mel (10 mg/kg) or sterile saline (0.25 ml). Groups were as follows: TBI-2LS80Mel n = 17; TBI-vehicle n = 17; sham n = 22 (vehicle n = 11, 2LS80Mel n = 11).
For injury induction 24 h post-surgery, mice were re-anesthetized with 5% isoflurane delivered for 3 min. The cap was removed from the injury-hub assembly and the dura was visually inspected through the hub to ensure it was intact with no debris. […] Injured mice were monitored for presence of a forearm fencing response and righting reflex times were recorded as indicators of injury severity ([Hosseini and Lifshitz, 2009]). […] After spontaneously righting, mice were placed in a heated recovery cage and monitored until they were ambulatory (approximately 5–15 min) before being returned to their piezoelectric sleep cage (see below). […]
Neurological impairments were assessed at 2, 5, and 7 DPI using an 8-point NSS paradigm adapted from those previously used in experimental models of TBI and previously reported by our lab ([Chen et al., 1996]; [Semple et al., 2010]; [Pleasant et al., 2011]; [Ziebell et al., 2011]; [Rowe et al., 2018]; [Rowe et al., 2019]). […]

Row | SMILES | Amphetamine-induced rotations at 2 weeks post-lesion [1] | Amphetamine-induced rotations at 4 weeks post-lesion [1] | Neurological severity score (sensorimotor deficits) [2]
1 | [2H]C([2H])([2H])C([2H])(C([2H])([2H])[2H])[C@]([2H])(NC(=O)[C@H](C)NC(=O)[C@H](C)NC(=O)[C@H](CC(C)C)NC(=O)[C@H](Cc1ccc(O)cc1)NC(=O)[C@H](CCCCN)NC(=O)[C@H](CCCCN)NC(=O)[C@@]([2H])(NC(=O)[C@H](C)NC(=O)[C@H](CC(C)C)NC(=O)[C@H](CCC(N)=O)NC(=O)[C@H](CCCCN)NC(=O)[C@H](CCCNC(=N)N)NC(=O)[C@H](Cc1ccc(O)cc1)NC(=O)[C@H](CCCNC(=N)N)NC(=O)[C@H](CO)NC(=O)[C@H](Cc1ccc(O)cc1)NC(=O)[C@H](CO)NC(=O)[C@H](CC(=O)O)NC(=O)[C@@H](NC(=O)[C@H](Cc1ccccc1)NC(=O)[C@@H](NC(=O)CNC(=O)[C@H](CC(=O)O)NC(=O)[C@H](CO)NC(=O)[C@@H](N)Cc1c[nH]cn1)[C@@H](C)CC)[C@@H](C)O)C([2H])(C([2H])([2H])[2H])C([2H])([2H])[2H])C(=O)N[C@@H](CC(C)C)C(=O)N[C@@H](CO[C@@H]1O[C@H](CO)[C@@H](O[C@@H]2O[C@H](CO)[C@H](O)[C@H](O)[C@H]2O)[C@H](O)[C@H]1O)C(N)=O [Compound 2LS98Lac] | did not see a difference | did not see a difference | –
2 | CC[C@H](C)[C@H](NC(=O)CNC(=O)[C@H](CC(=O)O)NC(=O)[C@H](CO)NC(=O)[C@@H](N)Cc1c[nH]cn1)C(=O)N[C@@H](Cc1ccccc1)C(=O)N[C@H](C(=O)N[C@@H](CC(=O)O)C(=O)N[C@@H](CO)C(=O)N[C@@H](Cc1ccc(O)cc1)C(=O)N[C@@H](CO)C(=O)N[C@@H](CCCNC(=N)N)C(=O)N[C@@H](Cc1ccc(O)cc1)C(=O)N[C@@H](CCCNC(=N)N)C(=O)N[C@@H](CCCCN)C(=O)N[C@@H](CCC(N)=O)C(=O)N[C@@H](CC(C)C)C(=O)N[C@@H](C)C(=O)N[C@H](C(=O)N[C@@H](CCCCN)C(=O)N[C@@H](CCCCN)C(=O)N[C@@H](Cc1ccc(O)cc1)C(=O)N[C@@H](CC(C)C)C(=O)N[C@@H](C)C(=O)N[C@@H](C)C(=O)N[C@H](C(=O)N[C@@H](CC(C)C)C(=O)N[C@@H](CO[C@@H]1O[C@H](CO[C@H]2O[C@H](CO)[C@H](O)[C@H](O)[C@H]2O)[C@@H](O)[C@H](O)[C@H]1O)C(N)=O)C(C)C)C(C)C)[C@@H](C)O [Compound 2LS80Mel] | – | – | deficits were prevented
